IC50 data for 31 compounds are collected here from patent US20080261994A1, “CYCLOPROPANE COMPOUNDS AND PHARMACEUTICAL USE THEREOF” (Japan Tobacco Inc., priority 2003, published 2008).

One may read the IC50 as the concentration that inhibits the measured activity by half.

What all share (type): biochemical
Experiment [1] has as its target T1, aggrecanase-1 (Homo sapiens, UniProt O75173).
T1 sequence (O75173 213-837): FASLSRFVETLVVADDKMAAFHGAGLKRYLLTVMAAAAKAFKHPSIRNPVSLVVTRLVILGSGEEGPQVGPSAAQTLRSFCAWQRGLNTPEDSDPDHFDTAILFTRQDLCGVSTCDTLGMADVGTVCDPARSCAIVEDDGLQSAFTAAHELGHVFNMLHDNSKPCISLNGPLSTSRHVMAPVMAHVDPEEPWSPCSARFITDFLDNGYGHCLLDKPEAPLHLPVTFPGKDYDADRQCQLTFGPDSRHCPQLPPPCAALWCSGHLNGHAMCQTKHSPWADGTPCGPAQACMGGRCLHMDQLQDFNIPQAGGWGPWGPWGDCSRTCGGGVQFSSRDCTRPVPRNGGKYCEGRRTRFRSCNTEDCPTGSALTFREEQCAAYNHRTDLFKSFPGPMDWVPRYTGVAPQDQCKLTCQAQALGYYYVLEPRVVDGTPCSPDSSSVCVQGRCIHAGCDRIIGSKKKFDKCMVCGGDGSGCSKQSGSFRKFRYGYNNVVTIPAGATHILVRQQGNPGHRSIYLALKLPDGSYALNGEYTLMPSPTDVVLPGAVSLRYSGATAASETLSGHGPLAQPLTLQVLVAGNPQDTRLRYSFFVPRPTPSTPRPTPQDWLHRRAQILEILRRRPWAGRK
Kind of experiment: Aggrecanase-1 inhibitory action (Particle Assay, GAG release from aggrecan-containing polyacrylamide particles). The settings on record: Experimental Example 1; read-out: IC50 AG1. The procedure, abridged:
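Readout was dimethylmethylene blue absorbance (595 nm) of glycosaminoglycan liberated into supernatant, calibrated with whale chondroitin sulfate. Substrate was aggrecan in polyacrylamide particles, digested 15 h at 37° C in Tris-HCl; TC50 (μM) derived from inhibition relative to no-enzyme and no-inhibitor controls.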

Experiment [2] deals with T2, MMP-1 (Homo sapiens, UniProt P03956).
T2 sequence (P03956 100-469): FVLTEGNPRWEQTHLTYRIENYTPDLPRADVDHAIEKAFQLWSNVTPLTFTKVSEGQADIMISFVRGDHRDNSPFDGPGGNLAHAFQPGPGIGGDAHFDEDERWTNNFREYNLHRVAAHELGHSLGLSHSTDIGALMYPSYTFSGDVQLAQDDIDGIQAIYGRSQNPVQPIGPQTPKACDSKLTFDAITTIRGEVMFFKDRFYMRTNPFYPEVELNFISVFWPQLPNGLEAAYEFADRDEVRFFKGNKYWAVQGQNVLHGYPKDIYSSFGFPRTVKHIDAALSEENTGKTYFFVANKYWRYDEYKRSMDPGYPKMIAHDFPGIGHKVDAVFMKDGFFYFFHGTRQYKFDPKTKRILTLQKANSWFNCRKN
As to the kind of experiment: MMP-1 inhibitory action (Type I collagen Activity Measurement kit, FITC-labeled collagen type I). The settings on record: Experimental Example 2; read-out: IC50 MMP1.

The target of experiment [3] is T3, Recombinant Human MMP-13 (Homo sapiens, UniProt P45452).
T3 construct: purchased R&D systems 511-MM
As to the kind of experiment: MMP-13 inhibitory activity (MMP-13 specific fluorescent substrate with quencher). Particulars: Experimental Example 3; read-out: IC50 MMP13. The procedure, abridged: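 IC50 (μM) derived from % inhibition, normalised to wells without enzyme and without inhibitor, fluorescence read at 325/405 nm. Enzyme and compound preceded addition of the quenched 7-MCA…DPA substrate; Tris-HCl buffer, 25 °C for 1 h, acetic-acid stop.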

Turning to `C[C@]1(c2ccccc2)C[C@@]1(NS(=O)(=O)c1ccc(-c2ccc(F)c(F)c2)s1)C(=O)O` [Example 2-581], the IC50 in experiment [1] is < 100 nM; in experiment [2] it was ≥ 1000 nM; in experiment [3], < 1000 nM.
Taken in the same sequence, the figures for `C[C@]1(c2ccccc2)C[C@@]1(NS(=O)(=O)c1ccc(-c2ccc(O)cc2)s1)C(=O)O` [Example 2-582] were < 1000 nM, ≥ 1000 nM and < 1000 nM.
Taken in the same sequence, the figures for `CC1[C@H](c2ccccc2)[C@]1(NS(=O)(=O)c1ccc(-c2nc3ccccc3[nH]2)s1)C(=O)O` (stereo partly drawn) [Example 2-584] were < 1000 nM, ≥ 1000 nM and < 100 nM.
Taken in the same sequence, the figures for `Cn1cc(-c2ccc(S(=O)(=O)N[C@@]3(C(=O)O)C[C@]3(C)c3ccccc3)s2)nn1` [Example 2-587] were ≥ 1000 nM, ≥ 1000 nM and < 1000 nM.
For `COCCCC1(c2ccccc2)CC1(NS(=O)(=O)c1ccc(-c2cc(C(F)(F)F)on2)s1)C(=O)O` (stereo not drawn) [Example 2-588], the IC50 is < 100 nM in experiment [1], < 1000 nM in experiment [2] and < 1000 nM in experiment [3].
In the case of `C[C@]1(c2ccccc2)C[C@@]1(NS(=O)(=O)c1ccc(-c2ccc(O)c(F)c2)s1)C(=O)O` [Example 2-589], the IC50 in experiment [1] is < 1000 nM; in experiment [2], ≥ 1000 nM; in experiment [3], ≥ 1000 nM.
On to `CC1[C@H](c2ccccc2)[C@]1(NS(=O)(=O)c1ccc(-c2ccc(C(F)(F)F)cc2)s1)C(=O)O` (stereo partly drawn) [Example 2-590], for which the IC50 in experiment [1] was < 100 nM; in experiment [2] it was ≥ 1000 nM; in experiment [3], < 100 nM.
In the case of `CC1[C@H](c2ccccc2)[C@]1(NS(=O)(=O)c1ccc(-c2nc3ccccc3s2)s1)C(=O)O` (stereo partly drawn) [Example 2-591], the IC50 in experiment [1] is ≥ 1000 nM; in experiment [2], ≥ 1000 nM; in experiment [3], < 100 nM.
Turning to `C[C@]1(c2ccccc2)C[C@@]1(NS(=O)(=O)c1ccc(-c2ccc(C#N)c(F)c2)s1)C(=O)O` [Example 2-593], the figures for the IC50 in experiment [1], in experiment [2] and in experiment [3] were < 1000 nM, ≥ 1000 nM and < 1000 nM, respectively.
Turning to `C[C@]1(c2ccccc2)C[C@@]1(NS(=O)(=O)c1ccc(-c2ccc(CO)c(F)c2)s1)C(=O)O` [Example 2-594], the half-maximal inhibitory concentration (IC50) was < 1000 nM in experiment [1], ≥ 1000 nM in experiment [2] and < 1000 nM in experiment [3].
On to `COc1ccc(-c2ccc(S(=O)(=O)N[C@@]3(C(=O)O)C[C@]3(C)c3ccccc3)s2)cc1Cl` [Example 2-595], for which the IC50 in experiment [1] is ≥ 1000 nM; in experiment [2] it was ≥ 1000 nM; in experiment [3], < 100 nM.
Take `CC1[C@H](c2ccccc2)[C@]1(NS(=O)(=O)c1ccc2nc(-c3ccccc3)[nH]c2c1)C(=O)O` (stereo partly drawn) [Example 2-596]: the IC50 was < 1000 nM in experiment [1], ≥ 1000 nM in experiment [2] and < 1000 nM in experiment [3].
For the compound `CC1C(NS(=O)(=O)c2ccc(-c3cc(C(F)(F)F)on3)s2)(C(=O)O)C1(C)c1ccccc1` (stereo not drawn) [Example 2-597], the IC50 in experiment [1] was ≥ 1000 nM; in experiment [2] it was ≥ 1000 nM; in experiment [3] it was ≥ 10000 nM.
Turning to `CC1C(NS(=O)(=O)c2ccc(-c3cc(C(F)(F)F)on3)s2)(C(=O)O)C1(C)c1ccccc1` (stereo not drawn) [Example 2-598], the IC50 in experiment [1] was < 100 nM; in experiment [2] it was ≥ 1000 nM; in experiment [3], < 1000 nM.
Taken in the same sequence, the figures for `C[C@]1(c2ccccc2)C[C@@]1(NS(=O)(=O)c1ccc(-n2cc(C(F)(F)F)cn2)s1)C(=O)O` [Example 2-599] were < 100 nM, ≥ 1000 nM and < 1000 nM.
Taken in the same sequence, the figures for `C[C@]1(c2ccccc2)C[C@@]1(NS(=O)(=O)c1ccc(-c2ccc(F)c(O)c2)s1)C(=O)O` [Example 2-600] were < 1000 nM, ≥ 1000 nM and < 1000 nM.
Taken in the same sequence, the figures for `C[C@]1(c2ccccc2)C[C@@]1(NS(=O)(=O)c1ccc(-c2cc(O)c(F)c(F)c2)s1)C(=O)O` [Example 2-601] were < 1000 nM, ≥ 1000 nM and ≥ 1000 nM.
Consider `C[C@]1(c2ccccc2)C[C@@]1(NS(=O)(=O)c1ccc(-n2cc(S(C)(=O)=O)cn2)s1)C(=O)O` [Example 2-602], for which the 50% inhibitory concentration (IC50) in experiment [1] is < 100 nM; in experiment [2], < 1000 nM; in experiment [3], < 1000 nM.
Consider `C[C@]1(c2ccccc2)C[C@@]1(NS(=O)(=O)c1ccc(-n2cc(CO)cn2)s1)C(=O)O` [Example 2-603], for which the IC50 in experiment [1], in experiment [2] and in experiment [3] was < 1000 nM throughout.
For the compound `O=C(O)[C@]1(NS(=O)(=O)c2ccc(-n3cc(Br)cn3)s2)C[C@@H]1c1ccccc1` [Example 2-605], the IC50 is ≥ 1000 nM in experiment [1], ≥ 10000 nM in experiment [2] and ≥ 1000 nM in experiment [3].
With `C[C@]1(c2ccccc2)C[C@@]1(NS(=O)(=O)c1ccc(-c2cccc(C(F)(F)CO)c2)s1)C(=O)O` [Example 2-606], the IC50 in experiment [1] is ≥ 1000 nM; in experiment [2], ≥ 10000 nM; in experiment [3], ≥ 1000 nM.
Regarding `COc1ccc2[nH]c(-c3ccc(S(=O)(=O)N[C@@]4(C(=O)O)C(C)[C@@H]4c4ccccc4)s3)nc2c1` (stereo partly drawn) [Example 2-607], the results for the IC50 in experiment [1], in experiment [2] and in experiment [3] were ≥ 1000 nM, ≥ 1000 nM and < 100 nM, respectively.
`CC1(c2ccc(Cl)cc2)CC1(NS(=O)(=O)c1ccc(-c2cc(C(F)(F)F)on2)s1)C(=O)O` (stereo not drawn) [Example 2-608]: the IC50 was < 100 nM in experiment [1], < 1000 nM in experiment [2] and < 1000 nM in experiment [3].
As to `CC1[C@H](c2ccccc2)[C@]1(NS(=O)(=O)c1ccc(-c2cc(C(C)(F)F)on2)s1)C(=O)O` (stereo partly drawn) [Example 2-609], the half-maximal inhibitory concentration (IC50) in experiment [1], in experiment [2] and in experiment [3] was < 100 nM throughout.
Regarding `COc1cccc(C2(C)CC2(NS(=O)(=O)c2ccc(-c3cc(C(F)(F)F)on3)s2)C(=O)O)c1` (stereo not drawn) [Example 2-610], the values for the IC50 in experiment [1], in experiment [2] and in experiment [3] were < 100 nM, < 1000 nM and ≥ 1000 nM, respectively.
Taken in the same sequence, the figures for `CC1(c2cccc(F)c2)CC1(NS(=O)(=O)c1ccc(-c2cc(C(F)(F)F)on2)s1)C(=O)O` (stereo not drawn) [Example 2-611] were < 100 nM, < 1000 nM and ≥ 1000 nM.
In the case of `CC1(c2cccc(Cl)c2)CC1(NS(=O)(=O)c1ccc(-c2cc(C(F)(F)F)on2)s1)C(=O)O` (stereo not drawn) [Example 2-612], the half-maximal inhibitory concentration (IC50) in experiment [1] is < 100 nM; in experiment [2] it was < 1000 nM; in experiment [3], ≥ 1000 nM.
Turning to `COc1ccccc1C1(C)CC1(NS(=O)(=O)c1ccc(-c2cc(C(F)(F)F)on2)s1)C(=O)O` (stereo not drawn) [Example 2-613], the values for the IC50 in experiment [1], in experiment [2] and in experiment [3] were < 100 nM, < 1000 nM and ≥ 1000 nM, respectively.
Taken in the same sequence, the figures for `CC1(c2cccc(S(C)(=O)=O)c2)CC1(NS(=O)(=O)c1ccc(-c2cc(C(F)(F)F)on2)s1)C(=O)O` (stereo not drawn) [Example 2-614] were < 100 nM, < 1000 nM and ≥ 1000 nM.
Taken in the same sequence, the figures for `CC1(c2ccccc2F)CC1(NS(=O)(=O)c1ccc(-c2cc(C(F)(F)F)on2)s1)C(=O)O` (stereo not drawn) [Example 2-615] were < 100 nM, < 100 nM and < 100 nM.
Consider `CC1(c2ccccc2Cl)CC1(NS(=O)(=O)c1ccc(-c2cc(C(F)(F)F)on2)s1)C(=O)O` (stereo not drawn) [Example 2-616], for which the IC50 in experiment [1] is < 100 nM; in experiment [2], < 1000 nM; in experiment [3], < 1000 nM.
